The text below walks through data of ChEMBL document CHEMBL1165872, “Synthesis and molecular docking studies of 1-phenyl-4-glycosyl-dihydropyridines as potent antileishmanial agents” (Eur J Med Chem, 2010).

≈ marks a conversion by molar mass, not a printed value. A value given as a limit tells only on which side of the number the result lay.

Series [1] can be described thus: Cytotoxicity against mouse J774A1 cells after 72 hrs by MTT assay. The format is cell-based, J774.A1.
The subject of series [2] is Leishmania donovani. Description: Antileishmanial activity against Leishmania donovani MHOM/IN/Dd8 promastigote carrying firefly luciferase gene assessed as relative luminescence unit at 40 ug/mL after 72 hrs. Particulars: MHOM/IN/Dd8, 72 h; call rule not given here. The format is functional.
Series [3] deals with Leishmania donovani. Kind of series: Antileishmanial activity against Leishmania donovani MHOM/IN/Dd8 promastigote carrying firefly luciferase gene assessed as relative luminescence unit after 72 hrs. The format is functional, organism-based.
For series [4], the system named is Leishmania donovani. Kind of series: Antileishmanial activity against Leishmania donovani MHOM/IN/Dd8 amastigote carrying firefly luciferase gene infected in mouse J774A1 cells assessed as relative luminescence unit after 72 hrs. In kind it is functional, organism-based, J774.A1.
The nature of series [5]: Selectivity index, ratio of CC50 for mouse J774A1 cells to IC50 for Leishmania donovani MHOM/IN/Dd8 amastigote. In kind it is functional, J774.A1.
The test system of series [6] is Leishmania donovani. Kind of series: Antileishmanial activity against Leishmania donovani MHOM/IN/Dd8 amastigote infected in hamster assessed as inhibition of amastigote multiplication at 50 mg/kg, ip for 5 days. The format is functional. Particulars: 120 h, route intraperitoneal.
Series [7] deals with Leishmania donovani. Description: Antileishmanial activity against Leishmania donovani MHOM/IN/Dd8 amastigote infected in hamster assessed as inhibition of amastigote multiplication at 30 mg/kg, po for 5 days. The format is functional. Particulars: MHOM/IN/Dd8, 120 h.
Series [8] relates to Leishmania donovani. Description: Antileishmanial activity against Leishmania donovani MHOM/IN/Dd8 amastigote infected in hamster assessed as inhibition of amastigote multiplication at 40 mg/kg, ip for 5 days. The format is functional. The settings on record: 120 h, route intraperitoneal.
[9] abbreviates: Leishmania donovani, MHOM/IN/Dd8, 72 h, read-out: IC50.
Setting [10] is: Leishmania donovani, MHOM/IN/Dd8, J774.A1, 72 h, read-out: IC50.

`COC(=O)C1=C(C)N(c2ccc(OC)cc2)C(C)=C(C(=O)OC)C1[C@@H]1O[C@H]2OC(C)(C)O[C@H]2[C@@H]1OCc1ccccc1`: half-maximal cytotoxicity in series [1] (CC50 at 72 h) was put at 14.1 µg/mL (≈ 24.4 µM). In addition, the inhibition at 40 µg/mL in series [2] is more than 80%. Besides, the IC50 came out at 1.94 µg/mL (≈ 3.35 µM) in series [3] (setting [9]) and 0.75 µg/mL (≈ 1.29 µM) in series [4] (setting [10]). Also, the “Ratio CC50/IC50” value in series [5] turned out to be 18.93. For the same compound, in series [6], the inhibition in vivo at 50 mg/kg worked out at 26.8%.

For `CCOC(=O)C1=C(C)N(c2ccc(OC)cc2)C(C)=C(C(=O)OCC)C1[C@@H]1O[C@H]2OC(C)(C)O[C@H]2[C@@H]1OCc1ccccc1`, the CC50 at 72 h in series [1] stood at 59.9 µg/mL (≈ 98.6 µM). In series [2], the inhibition at 40 µg/mL is more than 80%. Also, the figures for the IC50 in series [3] (setting [9]) and in series [4] (setting [10]) were 1.65 µg/mL (≈ 2.72 µM) and 8.08 µg/mL (≈ 13.3 µM), respectively. Besides, the “Ratio CC50/IC50” value in series [5] amounted to 7.42.

As to `COC(=O)C1=C(C)N(c2ccc(Cl)cc2)C(C)=C(C(=O)OC)C1[C@@H]1O[C@H]2OC(C)(C)O[C@H]2[C@@H]1OCc1ccccc1`, the CC50 at 72 h in series [1] turned out to be 4.22 µg/mL (≈ 7.23 µM). In addition, in series [2], the inhibition at 40 µg/mL is more than 80%. In addition, the IC50 in series [3] (setting [9]) was 1.86 µg/mL (≈ 3.18 µM); in series [4] (setting [10]), 3.8 µg/mL (≈ 6.51 µM). The “Ratio CC50/IC50” value in series [5] turned out to be 1.109.

For the compound `COC(=O)C1=C(C)N(c2ccc(N)cc2)C(C)=C(C(=O)OC)C1[C@@H]1O[C@H]2OC(C)(C)O[C@H]2[C@@H]2OC(C)(C)O[C@@H]21`, the inhibition at 40 µg/mL in series [2] was more than 80%. Further, the IC50 result in series [3] and in series [4] (j774.a1) was “Not Active” in each case.

Compound `COC(=O)C1=C(C)N(c2ccc(Cl)c(Cl)c2)C(C)=C(C(=O)OC)C1[C@@H]1O[C@H]2OC(C)(C)O[C@H]2[C@@H]1O` returned a CC50 at 72 h in series [1] of 29.9 µg/mL (≈ 56.7 µM). Moreover, in series [2], the inhibition at 40 µg/mL is more than 80%. Also, the results for the IC50 in series [3] (setting [9]) and in series [4] (setting [10]) were 3.72 µg/mL (≈ 7.04 µM) and 10.1 µg/mL (≈ 19.2 µM), respectively. The “Ratio CC50/IC50” value in series [5] came to 2.96.

In the case of `CCOC(=O)C1=C(C)N(c2ccc(C)cc2)C(C)=C(C(=O)OCC)C1[C@@H]1O[C@H]2OC(C)(C)O[C@H]2[C@@H]1OC`, the inhibition at 40 µg/mL in series [2] was more than 80%. The IC50 entry in series [3] and in series [4] (j774.a1) was “Not Active” each time.

Take `COC(=O)C1=C(C)N(c2ccc(Cl)cc2)C(C)=C(C(=O)OC)C1[C@@H]1O[C@H]2OC(C)(C)O[C@H]2[C@@H]1OC`: the CC50 at 72 h in series [1] is 82.4 µg/mL (≈ 162 µM). Also, the inhibition at 40 µg/mL in series [2] is more than 80%. The figures for the half-inhibitory concentration (IC50) in series [3] (setting [9]) and in series [4] (setting [10]) were 1.94 µg/mL (≈ 3.82 µM) and 19.1 µg/mL (≈ 37.5 µM), respectively. The “Ratio CC50/IC50” value in series [5] was found to be 4.32.

Consider `COC(=O)C1=C(C)N(c2ccc(F)cc2)C(C)=C(C(=O)OC)C1[C@@H]1O[C@H]2OC(C)(C)O[C@H]2[C@@H]1OCc1ccccc1`, for which, in series [2], the inhibition at 40 µg/mL was more than 80%. Besides, the IC50 in series [3] (setting [9]) was 3.67 µg/mL (≈ 6.47 µM); in series [4] (j774.a1) it was “Not Active”.

In series [1], `COC(=O)C1=C(C)N(c2ccc(C)cc2)C(C)=C(C(=O)OC)C1[C@@H]1O[C@H]2OC(C)(C)O[C@H]2[C@@H]1OCc1ccccc1` gave a CC50 at 72 h of 7.66 µg/mL (≈ 13.6 µM). In addition, the inhibition at 40 µg/mL in series [2] was more than 80%. The IC50 in series [3] (setting [9]) turned out to be 3.62 µg/mL (≈ 6.42 µM); in series [4] (setting [10]), 4.89 µg/mL (≈ 8.68 µM).

The compound `COC(=O)C1=C(C)N(c2ccc(OC)cc2)C(C)=C(C(=O)OC)C1[C@@H]1O[C@H]2OC(C)(C)O[C@H]2[C@@H]1OC` came in with a CC50 at 72 h in series [1] of 18.6 µg/mL (≈ 37 µM). For the same compound, in series [2], the inhibition at 40 µg/mL was more than 80%. Also, the IC50 in series [3] (setting [9]) is 12.4 µg/mL (≈ 24.6 µM); in series [4] (setting [10]) it was 4.42 µg/mL (≈ 8.78 µM). Further, the “Ratio CC50/IC50” value in series [5] is on record as 4.21.

As for `COC(=O)C1=C(C)N(c2ccc(Br)cc2)C(C)=C(C(=O)OC)C1[C@@H]1O[C@H]2OC(C)(C)O[C@H]2[C@@H]1OC`, the CC50 at 72 h in series [1] was found to be 48.5 µg/mL (≈ 87.8 µM). The inhibition at 40 µg/mL in series [2] was more than 80%. Further, the IC50 in series [3] (setting [9]) came to 0.88 µg/mL (≈ 1.59 µM); in series [4] (setting [10]), 3.57 µg/mL (≈ 6.46 µM). Further, the “Ratio CC50/IC50” value in series [5] worked out at 13.58. Moreover, the inhibition in vivo at 50 mg/kg in series [6] is 43.9%.

In series [1], `COC(=O)C1=C(C)N(c2ccc(C)cc2)C(C)=C(C(=O)OC)C1[C@@H]1O[C@H]2OC(C)(C)O[C@H]2[C@@H]1OC` returned a CC50 at 72 h of 33.1 µg/mL (≈ 67.8 µM). Besides, the inhibition at 40 µg/mL in series [2] was more than 80%. Besides, the IC50 worked out at 1.74 µg/mL (≈ 3.57 µM) in series [3] (setting [9]) and 4.45 µg/mL (≈ 9.13 µM) in series [4] (setting [10]). In addition, the “Ratio CC50/IC50” value in series [5] is recorded as 7.43. Further, the inhibition in vivo at 50 mg/kg in series [6] amounted to 58.8%.

As for `CCOC(=O)C1=C(C)N(c2ccccc2OC)C(C)=C(C(=O)OCC)C1[C@@H]1O[C@H]2OC(C)(C)O[C@H]2[C@@H]1OC`, the CC50 at 72 h in series [1] came to 49.7 µg/mL (≈ 93.5 µM). For the same compound, the inhibition at 40 µg/mL in series [2] is more than 80%. For the same compound, the IC50 in series [3] (setting [9]) came out at 0.22 µg/mL (≈ 0.414 µM); in series [4] (setting [10]), 6.18 µg/mL (≈ 11.6 µM). For the same compound, the “Ratio CC50/IC50” value in series [5] worked out at 8.04. Further, the inhibition in vivo at 50 mg/kg in series [6] was found to be 49.7%.

Turning to `COC(=O)C1=C(C)N(c2ccc(OC)cc2)C(C)=C(C(=O)OC)C1[C@@H]1O[C@H]2OC(C)(C)O[C@H]2[C@@H]2OC(C)(C)O[C@@H]21`, the inhibition at 40 µg/mL in series [2] was more than 80%. Moreover, the IC50 result in series [3] and in series [4] (j774.a1) was “Not Active” each time.

`COC(=O)C1=C(C)N(c2ccc(Cl)cc2)C(C)=C(C(=O)OC)C1[C@@H]1O[C@H]2OC(C)(C)O[C@H]2[C@@H]2OC(C)(C)O[C@@H]21` displayed a CC50 at 72 h in series [1] of 15.2 µg/mL (≈ 27 µM). For the same compound, in series [2], the inhibition at 40 µg/mL was more than 80%. Also, the IC50 stood at 4.17 µg/mL (≈ 7.39 µM) in series [3] (setting [9]) and 14.3 µg/mL (≈ 25.4 µM) in series [4] (setting [10]). Moreover, the “Ratio CC50/IC50” value in series [5] worked out at 1.06.

`COC(=O)C1=C(C)N(c2ccc(Cl)cc2)C(C)=C(C(=O)OC)C1[C@@H]1O[C@H]2OC(C)(C)O[C@H]2[C@@H]1O` came in with a CC50 at 72 h in series [1] of 35.5 µg/mL (≈ 71.9 µM). The inhibition at 40 µg/mL in series [2] is more than 80%. Further, the IC50 came out at 0.86 µg/mL (≈ 1.74 µM) in series [3] (setting [9]) and 3.85 µg/mL (≈ 7.79 µM) in series [4] (setting [10]). Also, in series [5], the “Ratio CC50/IC50” value amounted to 9.21. For the same compound, in series [6], the inhibition in vivo at 50 mg/kg is 44.9%.

Consider `CCCCCCCCCCCCCCCCOP(=O)([O-])OCC[N+](C)(C)C` [MILTEFOSINE], for which, in series [1], it took 31.3 µg/mL (≈ 76.8 µM) to reach half-maximal cytotoxicity (CC50 at 72 h). The values for the IC50 in series [3] (setting [9]) and in series [4] (setting [10]) were 0.643 µg/mL (≈ 1.58 µM) and 12.1 µg/mL (≈ 29.7 µM), respectively. Besides, the “Ratio CC50/IC50” value in series [5] turned out to be 2.58. For the same compound, in series [7], the inhibition in vivo at 30 mg/kg was 95%.

The compound `N=C(N)c1ccc(OCCCCCOc2ccc(C(=N)N)cc2)cc1` [PENTAMIDINE] gave a CC50 at 72 h in series [1] of 3.91 µg/mL (≈ 11.5 µM). Moreover, the concentration for half-maximal inhibition (IC50) amounted to 3.23 µg/mL (≈ 9.49 µM) in series [3] (setting [9]) and 3.59 µg/mL (≈ 10.5 µM) in series [4] (setting [10]). In series [5], the “Ratio CC50/IC50” value was 1.08. In addition, the inhibition in vivo at 40 mg/kg in series [8] was 92%.
